What is called MIC is the smallest concentration in the dilution series that meets the test's criterion for growth inhibition. For orientation: melting point means the temperature of the solid-liquid transition.

The test system of one data set is Mycobacterium smegmatis. Kind of data set: Determination of the Minimum Inhibitory Concentration, M. smegmatis. The class given is cell-based. Particulars: Mycolicibacterium smegmatis, ATCC607; M. smegmatis (ATCC 607), 72 h incubation, 1×10^5 CFU/ml inoculum. The protocol: (§1) The Minimum Inhibitory Concentration (MIC), which is defined as the lowest antimicrobial agent concentration inhibiting the visible growth of a microorganism following its incubation, was subsequently determined.
(§2) For the purpose of such determination, the compounds under study were tested on the strains listed in Table 3 with the antibiotics (AB) stated as reference in the table.
(§3) The test was conducted on a plate on the basis of a 1×10^5 CFU/ml inoculum concentration, with negative, positive and sterility controls being simultaneously performed. Different concentrations of the compounds under study were tested, as shown on the last column included in Table 3 (working solution).
(§4) Following incubation at 32.5±2.5° C. for a 24 h period (48 h in the case of C. sporogenes and 72 h in the case of M. smegmatis), the plates were visually read. The appearance of turbidity and/or the formation of a growth point at the microtube bottom were held as a positive result.

The test system of another data set is Clostridium sporogenes. Kind of data set: Determination of the Minimum Inhibitory Concentration, C. sporogenes. The class given is cell-based. Conditions: ATCC19404, C. sporogenes (ATCC 19404), 48 h incubation, 1×10^5 CFU/ml inoculum. The protocol: as §1, §2, §3, §4
For data set [1], the system named is Streptococcus pneumoniae. The data set is described as follows: Determination of the Minimum Inhibitory Concentration, S. pneumoniae. The class given is cell-based. Conditions: ATCC10015, S. pneumoniae (ATCC 10015), 24 h incubation, 1×10^5 CFU/ml inoculum. Here is the method: as §1, §2, §3, §4
Data set [2] concerns Streptococcus pneumoniae. Particulars: Streptococcus pneumoniae ATCC 10015; reference antibiotic according to WHONET; cited from earlier work.
The test system of data set [3] is Shigella boydii. Set-up: unit not given beside the values. Conditions: Shigella boydii ATCC 12027; reference antibiotic according to WHONET; cited from earlier work.
For data set [4], the system named is Shigella flexneri. The arrangement: unit not given beside the values. Particulars: Shigella flexneri ATCC 11836; reference antibiotic according to WHONET; cited from earlier work.
The subject of a further data set is Enterococcus faecalis. Conditions: Enterococcus faecalis ATCC 29212; reference antibiotic according to WHONET; in µg/mL; cited from earlier work.
The next data set relates to Staphylococcus Aureus. Particulars: Staphylococcus Aureus ATCC 29737; reference antibiotic according to WHONET; in µg/mL; cited from earlier work.
A further data set concerns Acinetobacter guillouiae. Conditions: Acinetobacter guillouiae ATCC 11171; reference antibiotic according to WHONET; in µg/mL; cited from earlier work.
In data set [5] the test system is Shigella boydii. Kind of data set: Determination of the Minimum Inhibitory Concentration, S. boydii. The class given is cell-based. Conditions: ATCC12027, S. boydii (ATCC 12027), 24 h incubation, 1×10^5 CFU/ml inoculum. Here is the method:
as §1, §2, §3, §4

Data set [6] deals with Shigella flexneri. The data set is described as follows: Determination of the Minimum Inhibitory Concentration, S. flexneri. The class given is cell-based. Conditions: ATCC11836, S. flexneri (ATCC 11836), 24 h incubation, 1×10^5 CFU/ml inoculum. Here is the method:
as §1, §2, §3, §4

In brackets after ≈: the same amount, converted by molar mass.

For the compound `COc1ccc(/C=C/C(=O)NNC(=O)c2ccncc2)cc1C(F)F` [compound 4], the MIC with Mycobacterium smegmatis and with Clostridium sporogenes was 64 µg/mL (≈ 184 µM) in each case.

Regarding `COc1ccc(/C=C/C(=O)NCCC(C)C)cc1C(F)F` [compound 6], the minimal inhibitory concentration (MIC) was 8 µg/mL (≈ 26.9 µM) against Mycobacterium smegmatis and 64 µg/mL (≈ 215 µM) in the data set with Streptococcus pneumoniae [1].

Turning to `COc1ccc(/C=C/C(=O)NCC(C)C)cc1C(F)F` [compound 5], in the data set with Mycobacterium smegmatis, the lowest concentration to inhibit growth (MIC) was 32 µg/mL (≈ 113 µM).

For the compound `CC1(C)S[C@@H]2[C@H](NC(=O)[C@H](N)c3ccccc3)C(=O)N2[C@H]1C(=O)O` [Ampicillin (sodium), Ampicillin], the “MIC (for WHO antibiotics)” value with Streptococcus pneumoniae [2] is “≦0.5”.

Turning to `C[C@@H]1O[C@@H]1P(=O)(O)O` [Phosphomycin], the “MIC (for WHO antibiotics)” value with Shigella boydii [3] and in the data set on Shigella flexneri [4] was “≦4.0” in each case.

`COc1ccc(/C=C/C(=O)NC(C)C)cc1C(F)F` [compound 2] returned an MIC with Mycobacterium smegmatis of 8 µg/mL (≈ 29.7 µM).

In the case of `COc1ccc(C=CC(=O)N2CCOCC2)cc1C(F)F` [Example 12, N-[3-(difluoromethyl)-4-methoxy-cinnamoyl]morpholine], the melting point is 119 °C.

For `CN[C@H](CC(C)C)C(=O)N[C@H]1C(=O)N[C@@H](CC(N)=O)C(=O)N[C@H]2C(=O)N[C@H]3C(=O)N[C@H](C(=O)N[C@H](C(=O)O)c4cc(O)cc(O)c4-c4cc3ccc4O)[C@H](O)c3ccc(c(Cl)c3)Oc3cc2cc(c3O[C@@H]2O[C@H](CO)[C@@H](O)[C@H](O)[C@H]2O[C@H]2C[C@](C)(N)[C@H](O)[C@H](C)O2)Oc2ccc(cc2Cl)[C@H]1O` [Vancomycin], the figures for the “MIC (for WHO antibiotics)” value in the data set with Enterococcus faecalis and with Staphylococcus Aureus were 1.0-4.0 and 0.5-2.0, respectively.

Compound `COc1ccc(/C=C/C(=O)NC(C)C)cc1` [compound 8] yielded an MIC in the data set on Mycobacterium smegmatis of 32 µg/mL (≈ 146 µM).

In the data set on Mycobacterium smegmatis, `COc1ccc(/C=C/C(=O)NC(C)C)cc1C` [compound 9] had an MIC of 32 µg/mL (≈ 137 µM).

Regarding `COc1ccc(C=CC(=O)N2CCN(C(=O)C=Cc3ccc(OC)c(C(F)F)c3)CC2)cc1C(F)F` [Example 6, N,N′-bis[3-(difluoromethyl)-4-methoxy-cinnamoyl]piperazine], the melting point is 259 to 261 °C.

`CN(C)c1ccc(O)c2c1C[C@H]1C[C@H]3[C@H](N(C)C)C(O)=C(C(N)=O)C(=O)[C@@]3(O)C(O)=C1C2=O` [Minocyclin]: the “MIC (for WHO antibiotics)” value in the data set with Acinetobacter guillouiae is listed as 0.06-8.0.

In the case of `COc1ccc(/C=C/C(=O)NC(C)C)cc1O` [compound 10], the MIC with Shigella boydii [5] and in the data set on Shigella flexneri [6] was 32 µg/mL (≈ 136 µM) in each case.

For `COc1ccc(/C=C/C(=O)Nc2ccccc2)cc1C(F)F` [compound 1], 64 µg/mL (≈ 211 µM) was the least that counted as inhibitory against Mycobacterium smegmatis (MIC).

In the data set with Mycobacterium smegmatis, `CC(=O)Oc1ccc(/C=C/C(=O)NC(C)C)cc1C(F)F` [entry 3] showed an MIC of 64 µg/mL (≈ 215 µM).

With `COc1ccc(/C=C/C(=O)NCCCNC(=O)/C=C/c2ccc(OC)c(C(F)F)c2)cc1C(F)F` [compound 7], 64 µg/mL (≈ 129 µM) was the least that counted as inhibitory against Streptococcus pneumoniae [1] (MIC).

These data come from US9255071B2, “Compounds having antibacterial activity, process for their preparation and pharmaceutical compositions comprising them” (Consejo Nacional de Investigaciones Cientificas y Técnicas …, priority 2012, dated 2016).
